How the values were obtained:
[1] = test system: breast cancer, HNSCC, prostate cancer, and ovarian cancer; test: Phase 2 imaging of tumors 3-6 hours post dosing with multiple NIR cameras; format: in vivo, human
Description: The study also utilized data collected from different NIR cameras and from multiple sites. All patients received a single I.V. dose of Compound 1, followed by routine surgery approximately 3-6 hours after infusion of Compound 1. Pre-excision and post-excision intraoperative and backtable visualization a tumor from a breast cancer patient (101-001; UPenn; VisionSense NIR camera) dosed with Compound 1 (2 mg/kg) 6±3 hr prior to surgery and an HNSCC cancer patient (102-007; UTSW; NOVADAQ SPY Elite NIR camera) dosed with Compound 1 (3 mg/kg) 6±3 hr prior to surgery are shown in FIG. 22. In each case, white light imaging of the pre- or post-excised tumor/specimen is juxtaposed with an overlay of the fluorescence observed and the white light image, indicating the presence of the tumor. Intraoperative/in vivo imaging of prostate cancer from two patients (102-008 and 102-009; UTSW; Da Vinci Firefly NIR camera with updated software/hardware) dosed with Compound 1 (3 mg/kg) 6±3 hr prior to excision of the tumor and the imaging of wound bed after excision of the tumor are shown in FIG. 23. In each case, white light imaging of the pre-excised tumor/specimen and the surgical wound bed are juxtaposed with images of the fluorescence observed. […] A tumor from a patient (101-005) with ovarian cancer dosed with Compound 1 (3 mg/kg, 6±3 hr) was imaged in vivo pre-excision as shown in FIG. 24. A white light image juxtaposed with an overlay of the fluorescence observed and the white light image, indicating the presence of the tumor.

HNSCC specimen = test: Fluorescence microscopy after spraying Compound 1 onto freshly frozen tissue sections; parameters: species or system human; conditions: sprayed ex vivo onto freshly frozen HNSCC sections
Source text: FIGS. 18A-18B describes fluorescence microscopy to confirm tumor-specific activation of Compound 1. […] DAPI was applied for nuclear staining (a) and Compound 1 for fluorescence visualization (b). […] RFU: relative fluorescence units.

PEO90-140-b-P(DBA60-150-r-ICG0-3-r-AMA0-3) [Compound 1]
Intraoperative fluorescence in prostate cancer ([1]; 3 mg/kg, 6±3 hr, Da Vinci Firefly camera): fluoresced intraoperatively
Fluorescence in the surgical bed after prostate tumor excision ([1]; 3 mg/kg, 6±3 hr, negative margins confirmed through pathology): No fluorescence was detected
Fluorescence in BC and HNSCC tumors ([1]; 3-5 hour dose schedule timing, SPY Elite camera): verified in all visible BC and HNSCC tumors
Ability to image tumors 3-6 hours after I.V. injection ([1]; Phase 2, breast cancer, HNSCC, prostate cancer, ovarian cancer, 2-3 mg/kg): demonstrated
Fluorescence delineation on tissue sections (HNSCC specimen): sharp delineation of fluorescence between the tumor and stromal tissue

Source: patent publication US20230025280A1, “PH RESPONSIVE COMPOSITIONS, FORMULATIONS, AND METHODS OF IMAGING A TUMOR” (ONCONANO MEDICINE, INC, priority 2019, published 2023)
